Measured values: ChEMBL document CHEMBL3407404, “Cyclopentyl-pyrimidine based analogues as novel and potent IGF-1R inhibitor” (Eur J Med Chem, 2015)

Key:
[1] = biological target: Insulin-like growth factor 1 receptor (Homo sapiens, UniProt P08069); experiment: Inhibition of IGF1R (unknown origin) using poly-G1 as substrate incubated for 10 mins prior to substrate addition measured after 1 hr by time-resolved fluorescence assay
[2] = Initial concentration in Sprague-Dawley rat at 2 mg/kg, iv; format: ADME, organism-based; design: dose 2 mg/kg, route intravenous; conditions: in vivo
[3] = Growth inhibition of human H460 cells after 48 hrs by propidium iodide staining-based fluorescence assay; format: functional, cell-based; conditions: NCI-H460, 48 h
[4] = test system: NCI-H1975; experiment: Growth inhibition of human NCI-H1975 cells after 48 hrs by propidium iodide staining-based fluorescence assay; format: functional, cell-based; conditions: NCI-H1975, 48 h
[5] = Clearance in Sprague-Dawley rat at 2 mg/kg, iv; format: ADME, organism-based; design: dose 2 mg/kg, route intravenous; conditions: in vivo
[6] = biological target: Insulin receptor (Homo sapiens, UniProt P06213); experiment: Inhibition of IR (unknown origin) using poly-G1 as substrate incubated for 10 mins prior to substrate addition measured after 1 hr by time-resolved fluorescence assay
[7] = test system: MCF7; experiment: Growth inhibition of human MCF7 cells after 48 hrs by propidium iodide staining-based fluorescence assay; format: functional, cell-based; conditions: MCF7, 48 h
[8] = Growth inhibition of human HCT116 cells after 48 hrs by propidium iodide staining-based fluorescence assay; format: functional, cell-based; conditions: HCT-116, 48 h
[9] = Volume of distribution at steady state in Sprague-Dawley rat at 2 mg/kg, iv; format: ADME, organism-based; design: dose 2 mg/kg, route intravenous; conditions: in vivo, read-out: Vdss
[10] = test system: A-431; experiment: Growth inhibition of human A431 cells after 48 hrs by propidium iodide staining-based fluorescence assay; format: functional, cell-based; conditions: A-431, 48 h
[11] = Oral bioavailability in Sprague-Dawley rat at 10 mg/kg; format: ADME, organism-based; conditions: in vivo
[12] = Growth inhibition of human COLO205 cells after 48 hrs by propidium iodide staining-based fluorescence assay; format: functional, cell-based; conditions: COLO 205, 48 h
[13] = test system: MDA-MB-231; experiment: Growth inhibition of human MDA-MB-231 cells after 48 hrs by propidium iodide staining-based fluorescence assay; format: functional, cell-based; conditions: MDA-MB-231, 48 h
[14] = Half life in Sprague-Dawley rat at 2 mg/kg, iv; format: ADME, organism-based; design: dose 2 mg/kg, route intravenous; conditions: in vivo
[15] = Half life in Sprague-Dawley rat at 10 mg/kg, po; format: ADME, organism-based; design: dose 10 mg/kg, route oral; conditions: in vivo

Sequence of Insulin-like growth factor 1 receptor (P08069 31-736 limits assumed): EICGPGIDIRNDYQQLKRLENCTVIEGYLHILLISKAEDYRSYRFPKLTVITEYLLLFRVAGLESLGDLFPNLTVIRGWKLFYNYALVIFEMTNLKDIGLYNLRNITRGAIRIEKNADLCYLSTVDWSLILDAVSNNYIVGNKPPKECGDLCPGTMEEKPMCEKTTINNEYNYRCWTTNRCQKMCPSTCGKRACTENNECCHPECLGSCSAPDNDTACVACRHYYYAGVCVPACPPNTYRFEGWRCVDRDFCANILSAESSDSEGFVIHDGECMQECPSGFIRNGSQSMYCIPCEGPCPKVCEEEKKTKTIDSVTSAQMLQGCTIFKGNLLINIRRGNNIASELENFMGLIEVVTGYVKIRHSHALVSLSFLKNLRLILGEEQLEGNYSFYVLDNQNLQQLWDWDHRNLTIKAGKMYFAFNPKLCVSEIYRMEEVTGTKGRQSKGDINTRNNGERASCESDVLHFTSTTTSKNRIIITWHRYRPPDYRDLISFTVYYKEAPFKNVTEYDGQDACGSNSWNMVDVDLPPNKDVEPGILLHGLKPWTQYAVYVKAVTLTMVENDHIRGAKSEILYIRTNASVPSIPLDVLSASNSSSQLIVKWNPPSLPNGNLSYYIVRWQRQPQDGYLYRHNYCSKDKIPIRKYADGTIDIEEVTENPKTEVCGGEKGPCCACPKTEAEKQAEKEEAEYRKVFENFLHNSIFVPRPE
Sequence of Insulin-like growth factor 1 receptor (P08069 741-1367 limits assumed): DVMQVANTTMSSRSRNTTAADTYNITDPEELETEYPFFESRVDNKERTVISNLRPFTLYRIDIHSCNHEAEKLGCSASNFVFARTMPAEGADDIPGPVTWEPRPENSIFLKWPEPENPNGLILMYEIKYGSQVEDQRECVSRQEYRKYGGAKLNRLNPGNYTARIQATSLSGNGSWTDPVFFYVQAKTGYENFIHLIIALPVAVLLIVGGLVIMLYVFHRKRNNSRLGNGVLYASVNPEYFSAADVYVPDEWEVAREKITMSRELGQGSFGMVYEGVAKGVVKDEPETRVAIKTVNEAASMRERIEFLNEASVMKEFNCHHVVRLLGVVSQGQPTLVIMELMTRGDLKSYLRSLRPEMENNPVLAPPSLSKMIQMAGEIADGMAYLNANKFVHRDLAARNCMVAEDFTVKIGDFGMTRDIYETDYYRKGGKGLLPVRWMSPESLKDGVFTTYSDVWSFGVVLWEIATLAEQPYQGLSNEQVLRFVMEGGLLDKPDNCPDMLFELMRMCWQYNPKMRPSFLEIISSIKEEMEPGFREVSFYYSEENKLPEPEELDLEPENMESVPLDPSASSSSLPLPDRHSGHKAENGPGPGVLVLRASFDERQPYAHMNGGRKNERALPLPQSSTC
Sequence of Insulin receptor (P06213 28-758 limits assumed): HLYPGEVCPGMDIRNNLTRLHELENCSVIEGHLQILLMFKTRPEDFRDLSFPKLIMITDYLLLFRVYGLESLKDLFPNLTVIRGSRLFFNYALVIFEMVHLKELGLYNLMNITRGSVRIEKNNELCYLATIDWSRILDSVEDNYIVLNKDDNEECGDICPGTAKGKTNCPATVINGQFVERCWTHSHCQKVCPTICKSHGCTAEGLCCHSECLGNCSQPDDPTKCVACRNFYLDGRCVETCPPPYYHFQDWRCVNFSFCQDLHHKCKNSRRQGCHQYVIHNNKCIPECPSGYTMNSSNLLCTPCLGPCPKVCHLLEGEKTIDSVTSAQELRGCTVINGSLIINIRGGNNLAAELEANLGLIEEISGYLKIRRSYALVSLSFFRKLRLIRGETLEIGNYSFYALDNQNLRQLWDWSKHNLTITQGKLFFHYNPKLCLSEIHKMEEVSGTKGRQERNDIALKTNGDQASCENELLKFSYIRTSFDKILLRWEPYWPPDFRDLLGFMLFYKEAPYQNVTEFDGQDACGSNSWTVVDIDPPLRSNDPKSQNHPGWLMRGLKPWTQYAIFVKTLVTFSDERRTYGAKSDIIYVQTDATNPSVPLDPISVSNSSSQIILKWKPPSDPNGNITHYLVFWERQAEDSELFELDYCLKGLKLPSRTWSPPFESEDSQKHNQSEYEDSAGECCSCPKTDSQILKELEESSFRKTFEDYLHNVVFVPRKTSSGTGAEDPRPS
Sequence of Insulin receptor (P06213 763-1382 limits assumed): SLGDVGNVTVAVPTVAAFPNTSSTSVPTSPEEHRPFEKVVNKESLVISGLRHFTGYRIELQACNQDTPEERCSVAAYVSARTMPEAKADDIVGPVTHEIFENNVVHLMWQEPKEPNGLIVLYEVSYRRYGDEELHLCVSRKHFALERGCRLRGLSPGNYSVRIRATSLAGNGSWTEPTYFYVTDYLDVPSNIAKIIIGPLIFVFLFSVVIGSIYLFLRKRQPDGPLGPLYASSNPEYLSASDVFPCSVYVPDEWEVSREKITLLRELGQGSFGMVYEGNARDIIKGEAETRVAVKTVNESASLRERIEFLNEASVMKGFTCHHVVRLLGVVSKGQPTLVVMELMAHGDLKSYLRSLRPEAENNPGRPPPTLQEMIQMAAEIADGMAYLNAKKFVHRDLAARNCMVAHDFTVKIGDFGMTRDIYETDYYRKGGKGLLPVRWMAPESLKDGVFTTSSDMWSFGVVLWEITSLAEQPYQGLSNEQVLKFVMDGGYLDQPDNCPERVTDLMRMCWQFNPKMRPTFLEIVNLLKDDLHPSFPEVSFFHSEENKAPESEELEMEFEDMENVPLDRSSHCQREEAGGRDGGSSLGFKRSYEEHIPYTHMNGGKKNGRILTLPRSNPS

Compound	IC50 ([1]; read-out: IC50) [nM]	further results
CN(C)CCN(C)c1nc2c(c(Nc3cc(C4CC4)[nH]n3)n1)CCC2	> 1000	
Cc1cc(Nc2nc(N3CCCCC3)nc3c2CCC3)n[nH]1	442	
c1c(Nc2nc(N3CCCCC3)nc3c2CCC3)n[nH]c1C1CC1	32	
Cc1cc(Nc2nc(N3CCCCCC3)nc3c2CCC3)n[nH]1	2000	
CC1CCN(c2nc(Nc3cc(C4CC4)[nH]n3)c3c(n2)C2(CCCC2)CC3)CC1	2800	
N#CC1CCN(c2nc3c(c(Nc4cc(C5CC5)[nH]n4)n2)CCC3)CC1	124	
c1c(Nc2nc(N3CCCCCC3)nc3c2CCC3)n[nH]c1C1CC1	10	
CC1CCN(c2nc3c(c(Nc4cc(C5CC5)[nH]n4)n2)CCC3)CC1	20	C0 [2]: 1050 ng/mL; IC50 [3]: 180 nM; IC50 [4]: 3000 nM; clearance [5]: 59.1 mL/min/kg; IC50 [6]: 110 nM; IC50 [7]: 1670 nM; IC50 [8]: 350 nM; Vd [9]: 4.37 L/kg; IC50 [10]: 340 nM; bioavailability [11]: 11.3%; IC50 [12]: 2190 nM; IC50 [13]: 700 nM; half-life [14]: 51 min; half-life [15]: 52.2 min
c1ccc(-c2cc(Nc3nc(N4CCCCCC4)nc4c3CCC4)n[nH]2)cc1	> 1000	
CC1CCN(c2nc(Nc3cc(C4CC4)[nH]n3)c3c(n2)C(F)(F)CC3)CC1	786	
CCOC(=O)C1CCCN(c2nc3c(c(Nc4cc(C(C)(C)C)[nH]n4)n2)CCC3)C1 (centres undefined)	108	
CCOC(=O)C1CCCN(c2nc3c(c(Nc4cc(C)[nH]n4)n2)CCC3)C1 (centres undefined)	970	
CC1CCN(c2nc(Nc3cc(C4CC4)[nH]n3)c3c(n2)C2CCC3C2)CC1 (centres undefined)	1190	
Cc1ccc(CNc2nc3c(c(Nc4cc(C5CC5)[nH]n4)n2)CCC3)cc1	149	
CC1CCN(c2nc(Nc3cc(C4CC4)[nH]n3)c3c(n2)C(C)(C)CC3)CC1	1500	
CC1CCN(c2nc3c(c(Nc4cc(-c5ccccc5)[nH]n4)n2)CCC3)CC1	> 1000	
CC(C)(C)c1cc(Nc2nc(N3CCCCCC3)nc3c2CCC3)n[nH]1	568	
O=C(O)C1CCN(c2nc3c(c(Nc4cc(C5CC5)[nH]n4)n2)CCC3)CC1	> 1000	
c1c(Nc2nc(N3CCNCC3)nc3c2CCC3)n[nH]c1C1CC1	> 1000	
CC1(C)CCN(c2nc3c(c(Nc4cc(C5CC5)[nH]n4)n2)CCC3)CC1	203	
Cc1cc(Nc2nc(N3CCC(C)CC3)nc3c2CCC3)n[nH]1		IC50 [1]: Not Active
c1ccc(-c2nc3c(c(Nc4cc(C5CC5)[nH]n4)n2)CCC3)cc1	97	
c1ccc(CNc2nc3c(c(Nc4cc(C5CC5)[nH]n4)n2)CCC3)cc1	267	
CC(C)(C)c1cc(Nc2nc(N3CCCCC3)nc3c2CCC3)n[nH]1	251	
CCOC(=O)C1CCN(c2nc3c(c(Nc4cc(C5CC5)[nH]n4)n2)CCC3)CC1	35	
OCC1CCCN(c2nc3c(c(Nc4cc(C5CC5)[nH]n4)n2)CCC3)C1 (centres undefined)	90	
c1c(Nc2nc(N3CC4CCC3C4)nc3c2CCC3)n[nH]c1C1CC1 (centres undefined)	41	
CCN(CC)C(=O)C1CCCN(c2nc3c(c(Nc4cc(C5CC5)[nH]n4)n2)CCC3)C1 (centres undefined)	184	
CC1CCN(c2nc3c(c(Nc4cc(C(C)(C)C)[nH]n4)n2)CCC3)CC1	300	
c1c(Nc2nc(N3CCCCCCC3)nc3c2CCC3)n[nH]c1C1CC1	58	
